Assay results reported in ChEMBL document CHEMBL1157124, “Synthesis and anticancer evaluation of alpha-lipoic acid derivatives” (Bioorg Med Chem Lett, 2010).

How the values were obtained:
Type in all cases: functional
[1] = Cytotoxicity against human HO8910 cells assessed as growth inhibition at 0.1 ug/ml after 24 hrs by MTT assay; conditions: HO-8910, 24 h, read-out: GI
KB [2] = assay: Cytotoxicity against human KB cells assessed as growth inhibition at 0.1 ug/ml after 24 hrs by MTT assay; conditions: read-out: GI
KB [3] = assay: Cytotoxicity against human KB cells assessed as growth inhibition at 1 ug/ml after 24 hrs by MTT assay; conditions: read-out: GI
NCI-H460 [4] = assay: Cytotoxicity against human NCI-H460 cells assessed as growth inhibition at 1 ug/ml after 24 hrs by MTT assay; conditions: NCI-H460, 24 h, read-out: GI
KB [5] = assay: Cytotoxicity against human KB cells assessed as growth inhibition at 10 ug/ml after 24 hrs by MTT assay; conditions: read-out: GI
Bel-7402 [6] = assay: Cytotoxicity against human Bel7402 cells assessed as growth inhibition at 10 ug/ml after 24 hrs by MTT assay; conditions: Bel-7402, 24 h, read-out: GI
Bel-7402 [7] = assay: Cytotoxicity against human Bel7402 cells assessed as growth inhibition at 0.1 ug/ml after 24 hrs by MTT assay; conditions: Bel-7402, 24 h, read-out: GI
NCI-H460 [8] = assay: Cytotoxicity against human NCI-H460 cells assessed as growth inhibition at 0.1 ug/ml after 24 hrs by MTT assay; conditions: NCI-H460, 24 h, read-out: GI
Bel-7402 [9] = assay: Cytotoxicity against human Bel7402 cells assessed as growth inhibition at 1 ug/ml after 24 hrs by MTT assay; conditions: Bel-7402, 24 h, read-out: GI
NCI-H460 [10] = assay: Cytotoxicity against human NCI-H460 cells assessed as growth inhibition at 10 ug/ml after 24 hrs by MTT assay; conditions: NCI-H460, 24 h, read-out: GI
KB [11] = assay: Cytotoxicity against human KB cells assessed as growth inhibition at 100 ug/ml after 24 hrs by MTT assay; conditions: read-out: GI
NCI-H460 [12] = assay: Cytotoxicity against human NCI-H460 cells assessed as growth inhibition at 100 ug/ml after 24 hrs by MTT assay; conditions: NCI-H460, 24 h, read-out: GI
Bel-7402 [13] = assay: Cytotoxicity against human Bel7402 cells assessed as growth inhibition at 100 ug/ml after 24 hrs by MTT assay; conditions: Bel-7402, 24 h, read-out: GI
[14] = Cytotoxicity against human HO8910 cells assessed as growth inhibition at 1 ug/ml after 24 hrs by MTT assay; conditions: HO-8910, 24 h, read-out: GI
[15] = Cytotoxicity against human HO8910 cells assessed as growth inhibition at 100 ug/ml after 24 hrs by MTT assay; conditions: HO-8910, 24 h, read-out: GI
[16] = Cytotoxicity against human HO8910 cells assessed as growth inhibition at 10 ug/ml after 24 hrs by MTT assay; conditions: HO-8910, 24 h, read-out: GI

Row | SMILES | inhibition of growth at 0.1 µg/mL [1] [%] | inhibition of growth at 0.1 µg/mL (KB [2]) [%] | inhibition of growth at 1 µg/mL (KB [3]) [%] | inhibition of growth at 1 µg/mL (NCI-H460 [4]) [%] | inhibition of growth at 10 µg/mL (KB [5]) [%] | inhibition of growth at 10 µg/mL (Bel-7402 [6]) [%] | inhibition of growth at 0.1 µg/mL (Bel-7402 [7]) [%] | inhibition of growth at 0.1 µg/mL (NCI-H460 [8]) [%] | inhibition of growth at 1 µg/mL (Bel-7402 [9]) [%] | inhibition of growth at 10 µg/mL (NCI-H460 [10]) [%] | inhibition of growth at 100 µg/mL (KB [11]) [%] | inhibition of growth at 100 µg/mL (NCI-H460 [12]) [%] | inhibition of growth at 100 µg/mL (Bel-7402 [13]) [%] | inhibition of growth at 1 µg/mL [14] [%] | inhibition of growth at 100 µg/mL [15] [%] | inhibition of growth at 10 µg/mL [16] [%]
1 | CC(=O)SCCC(CCCCC(=O)Nc1ccccc1Cl)SC(C)=O (stereo unspecified) | 2.48 | 7.05 | 8.21 | 13.2 | 6.55 | 3.09 | 6.61 | 16.6 | 5.01 | 11.4 | 6.93 | 15.2 |  |  |  | 
2 | O=C(CCCCC(S)CCS)Nc1ccc(Cl)cc1 (stereo unspecified) | 1.04 | 9.11 | 13.3 | 6.76 | 18.2 | 1.16 | 1.06 |  | 0.27 | 21.9 | 44.1 | 40.9 | 25.5 | 2.81 | 21.3 | 
3 | O=C(CCCCC1CCSS1)Nc1cccc2ccccc12 (stereo unspecified) | 0.34 |  | 8.37 | 4.15 |  | 6.27 | 3.4 | 2.36 | 9.55 |  |  |  | 7.22 | 6.95 |  | 
4 | O=C(CCCCC1CCSS1)NO (stereo unspecified) |  | 7.92 | 2.57 | 0.64 | 0.89 | 11.8 | 10.4 | 3.9 | 7.39 |  | 12.4 |  | 12.5 |  |  | 
5 | Cc1cccc(NC(=O)CCCCC(S)CCS)c1 (stereo unspecified) | 4.92 | 5.75 | 3.31 | 9.43 | 7.23 | 14.1 | 10.1 | 9.34 | 11.1 | 7.67 | 17.5 | 23.1 | 7.08 | 2.76 |  | 
6 | COc1ccc(NC(=O)CCCCC(S)CCS)cc1 (stereo unspecified) |  |  | 2.49 |  | 8.93 | 10.4 | 5.35 | 5.69 | 3.96 | 1.43 | 22.2 | 23.5 | 22.5 | 1.79 | 12.6 | 4.14
7 | O=C(CCCCC(S)CCS)Nc1ccccn1 (stereo unspecified) |  |  |  | 2.31 | 0.28 |  |  | 5.01 |  |  | 18.5 | 11.7 | 3.62 |  | 14.2 | 
8 | O=C(CCCCC(S)CCS)Nc1cccc2ccccc12 (stereo unspecified) | 0.76 |  |  |  |  |  |  |  | 0.69 |  |  | 2.18 |  |  |  | 
9 | O=C(CCCCC(CCSC(=O)c1ccccc1)SC(=O)c1ccccc1)Nc1cccc(Cl)c1 (stereo unspecified) | 9.02 | 10.7 | 12.7 | 9.48 | 16.6 |  | 1.7 | 15.6 |  | 9.12 |  |  |  | 3.38 |  | 
